The results in this text go back to patent publication US20090098050A1, “CALCIUM BINDING PEPTIDES” (THE REGENTS OF THE UNVERSITY OF CALIFORNIA, priority 2005, published 2009).

Experiment [1] can be described thus: Remineralization of demineralized dentin surfaces with Quell Desensitizer (SEM). Particulars: 12.5 μM peptide one hour, then Quell Desensitizer 15 minutes. More on the design: species or system human. As for the experimental part:
FIG. 4: Remineralization of tooth surfaces with DSS peptides. Extracted human teeth were sagitally sectioned and demineralized with 19% EDTA gel for 1 hour, followed by immersion in deionized water and ultrasonication to remove excess debris. Samples were treated as indicated, then imaged by Scanning Electron Microscopy. Scale bars=50 μm. A. Demineralized control samples. B. Treated with 8DSS for 1 hour, rinsed, and remineralized using Quell Desensitizer. C. Treated with buffer only, remineralized using Quell Desensitizer. D. No treatment, remineralized using Quell Desensitizer. Extracted human teeth were sagitally sectioned (Accutom-50, CA-231 diamond blade) and demineralized with 19% EthyleneDiaminoTetraAcetic acid (EDTA) gel for one hour, followed by immersion in deionized water and ultrasonication to remove excess debris. Samples were treated with 12.5 μM 8DSS peptide in 50 mM HEPES buffer (pH 7.0), buffer only (no peptide), or left untreated. After one hour, samples were remineralized for 15 minutes with Quell Desensitizer (Pentron technologies, LLC), a remineralization solution consisting of aqueous solutions of calcium chloride and potassium phosphate. Samples were rinsed thoroughly prior to imaging by scanning electron microscopy (SEM).

Experiment [2] in a line: Preferential binding to carious lesions in teeth (CLSM). Further details: species or system human. The conditions noted are these: labeled peptide, settings optimized per sample. Here is the method: FIG. 9: Fluorescence micrographs showing specific binding of DSS peptides and variants to carious lesions in teeth. Adult human teeth were exposed to 12.5 uM 5(6)-carboxyfluorescein-labeled peptide without demineralization, washed extensively, and imaged by CLSM. Microscope and camera settings were optimized separately for each sample. […] White traces on the right side of each panel identify the position of the tooth surface, while arrows indicate the position of the stained lesion.
Sections of human teeth containing obvious carious lesions, which consist of demineralized enamel, were polished and exposed to 5(6)-carboxyfluorescein-labeled DSS peptides and variants using the protocol described in Example 2. The sections were washed extensively and imaged by CLSM using blue laser illumination (λ=488 nm) and a FITC emission filter, with microscope and camera settings adjusted for each sample to optimize the signal detected from each peptide. The images were examined to identify the relative levels of peptide binding in healthy versus carious tissue. […] Given their ability to remineralize at sites of enamel degradation (Example 6), they can also be used to initiate remineralization at sites of enamel degradation such as caries or injury sites without causing inappropriate nucleation on healthy tissue surfaces.

The nature of experiment [3]: Binding of fluorescein-labeled peptides to hydroxyapatite nanocrystals (Langmuir isotherm). Particulars: fluorescein-labeled peptide 0-100 μM, 0.3 mg hydroxyapatite, ten minutes, Langmuir fit. As for the experimental part: FIG. 1: Binding affinities of DSS and DSS variant peptides for hydroxyapatite and tooth surfaces. A-C. Fluorescein-labeled peptides at concentrations ranging from 0-100 μM were incubated with 0.3 mg of hydroxyapatite nanocrystals (specific surface area=100 m^2/g) for ten minutes, followed by removal of the hydroxyapatite by centrifugation. The amount of peptide in the mixture before and after hydroxyapatite removal was determined by Abs480. Isotherms were plotted and fit to the Langmuir equation to extract values for KA, a constant reflecting the affinity of the peptide for the hydroxyapatite surface. D. Sagitally sectioned human teeth were incubated with 12.5 μM 5(6) carboxyfluorescein-labeled 6DSS peptide for ten minutes, followed by rinsing. Peptide binding to tooth surfaces was visualized by Confocal Laser Scanning Microscopy (CLSM) using blue laser illumination (λA=488 nm) and a FITC emission filter. Left side, light colored region: dentin. Right side, dark colored region: enamel.
Four DSS peptides containing two (2DSS, SEQ ID NO:12), four (4DSS, SEQ ID NO:13), six (6DSS, SEQ ID NO:14), or eight(8DSS, SEQ ID NO:15) Asp-Ser-Ser (DSS) repeats were generated. Peptides were labeled with fluorescein, and various concentrations of the labeled peptides (0-100 μM) were mixed with a fixed amount (0.3 mg) of hydroxyapatite nanocrystals having a specific surface area of 100 m^2/g (Berkeley Advanced Biomaterials, Inc.). Samples were incubated for ten minutes, followed by removal of the hydroxyapatite by centrifugation. The amount of peptide in the mixture was measured both before and after hydroxyapatite removal by spectroscopic absorbance at 480 nm (the peak absorbance of the fluorescein label). The amount of peptide bound was calculated by comparing the ratio of the final (Af) and initial (Ai) absorbances to the initial concentration (P0) [Pbound=[…]]. Plots were generated illustrating the amount of peptide bound per m^2 of hydroxyapatite surface area versus concentration of unbound peptide at equilibrium. The resulting isotherms were fit to the Langmuir isotherm (x/m=(KANMaxCeq)/(1+KACeq)) (Calis 1995), which describes the binding activity of a molecule in terms of a combination of binding affinity (KA) and avidity (NMax). KA represents the affinity constant of the peptide for the hydroxyapatite surface. In this equation, x/m represents the molar amount of peptide bound per unit of hydroxyapatite surface area, NMax represents the maximum surface concentration (mol/m^2), and Ceq represents the molar concentration of unbound peptide at equilibrium. The Langmuir isotherm describes the binding of molecules to surfaces with the conditions that 1) all binding sites have the same affinity for the peptide, and 2) the peptide will form a monolayer on the surface but cannot accumulate to higher levels. The excellent fit of the Langmuir isotherm to the experimental data validates these conditions, and these affinity constants were used for comparisons between peptides.

In the case of “8DSS: peptide containing eight Asp-Ser-Ser (DSS) repeats, SEQ ID NO:15 (DSSDSSDSSDSSDSSDSSDSSDSS; calcium binding peptide containing eight DSS repeats, 8DSS)”, in experiment [1], the “Mineral precipitate accumulation on demineralized dentin” value is given as “accumulated a continuous layer of calcium phosphate precipitate, fully occluding the dentinal tubules”. In experiment [2], the “Specificity of binding to carious lesions versus surrounding healthy enamel” value is on record as “highly specific binding to carious lesions” and the “Strength of staining of carious lesions” value is recorded as “exceptionally strong staining of carious lesions”. The “KA, affinity constant of the peptide for the hydroxyapatite surface” value in experiment [3] is given as 300,000 M^−1.
